Data reported in patent publication US11738091B2, “Method for terminating cancer cells with an azole-based compound” (Imam Abdulrahman Bin Faisal University, priority 2019, dated 2023).

Columns and labels:
HCT-116 cells [1] = assay: MTT assay of cancer cell viability; details: for attenuating cancer cells proliferation (in words) / effect on cancer cell survivability (in words) / comparison among the five conjugates in decreasing cancer cells proliferation: HCT-116; for dose dependence of effect on cancer cells viability: HCT-116, MTT staining; for comparison among the five conjugates in decreasing cancer cells proliferation: versus Conj. 1, Conj. 2 and Conj. 5
Procedure: CANCER CELL TREATMENTS: Human colorectal carcinoma cells (HCT-116) cells were grown according to a method described in Khan, F. A.; Akhtar, S.; Almohazey, D.; Alomari, M.; Almofty, S. A.; Eliassari, A. “Fluorescent magnetic submicronic polymer (FMSP) nanoparticles induce cell death in human colorectal carcinoma cells” Artif Artif. Cells, Nanomed., Biotechnol. 2018, (doi: 10.1080/21691401.2018.1491476). HCT-116 cells were grown in Dulbecco Modified Eagle Medium (DMEM), 10% fetal bovine serum, L-glutamine, selenium chloride, penicillin, and streptomycin. The cells were cultured in a CO2 incubator (Heracell 150i, Thermo-scientific, USA) at 37° C. under 5% CO2 for 48 to 72 hours. Confluenced cells were seeded into 96-well cell plates and, once the cells became 80% confluenced, the cancer cells were treated with different concentrations ([…]) of Conj. 1, Conj. 2, Conj. 3, Conj. 4, Conj. 5 respectively. […] Each sample was taken in triplicate to obtain a statistical analysis.
CANCER CELLS VIABILITY BY MTT ASSAY: To examine effect of Conj. 1, Conj. 2, Conj. 3, Conj. 4, Conj. 5 on cancer cells, a 3-(4,5-dimethylthiazol-2-yl)-2,5-diphenyltetrazolium bromide (MTT) assay was conducted on the cells. The cancer cells were seeded at 6×10^4 cells/mL concentration in 96-well culture plates containing DMEM, 10% Fetal bovine serum, penicillin, and streptomycin and were incubated in CO2 incubator until the cells were 80% confluenced. The cancer cells were then treated with Conj. 1, Conj. 2, Conj. 3, Conj. 4, Conj. 5 at concentrations of 1.3, 3.26, and 6.5 mg/mL, whereby no conjugate was added in the control groups. A 5.0 mg/mL MTT solution was added into each well, and the cells were again incubated for 4 hours in the CO2 incubator and finally media was changed with the addition of DMSO. The samples were then measured using an ELISA plate reader (Biotek Instruments, USA) at wavelength 570 nm.
The following formula was used to calculate percentage of cell viability: % of Cell viability=[Optical density (O.D) of Conj. 1, Conj. 2, Conj. 3, Conj. 4, or Conj. 5 cells]/[Optical density (O.D) of control cells]×100.
1, Conj. 2, Conj. 3, Conj. 4, Conj. 5 treated groups were calculated. All statistical analyses were completed with GraphPad Prism 6 (GraphPad Software). The difference between control and Conj. 1, Conj. 2, Conj. 3, Conj. 4, Conj. 5 groups by a one-way ANOVA test (*p<0.05, **p<0.01; ***p<0.001) was taken as statistically significant.

HCT-116 cells [2] = assay: Cancer cell morphology by inverted microscope; assay type: cell-based, human; details: 48 hours, 200x magnification
Text: Cells, Nanomed., Biotechnol. 2018, (doi: 10.1080/21691401.2018.1491476). […] 1, Conj. 2, Conj. 3, Conj. 4, Conj. 5 respectively.
CANCER CELL MORPHOLOGY: After the treating the HTC-116 cells with Conj. 1, Conj. 2, Conj. 3, Conj. 4, Conj. 5, the cells were observed using an inverted microscope (TS100F Eclipse, Nikon, Japan) to evaluate the anatomical and morphological changes.

Substance | attenuating cancer cells proliferation (in words) (HCT-116 cells [1]) | effect on cancer cell survivability (in words) (HCT-116 cells [1]) | dose dependence of effect on cancer cells viability (HCT-116 cells [1]) | comparison among the five conjugates in decreasing cancer cells proliferation (HCT-116 cells [1]) | cancer cell morphology (HCT-116 cells [2]; HCT-116, 1.3 mg/mL) | cancer cell morphology (HCT-116 cells [2]; HCT-116, 3.26 mg/mL) | cancer cell morphology (HCT-116 cells [2]; HCT-116, 6.5 mg/mL)
SiO2-3GPS-Atet [Conj. 3] | highly effective | profound effects | dose dependent effects | more effective | significant levels of nucleus condensation and nuclear augmentation | nuclear condensation and augmentation of cancer cells | significant loss of cell population
SiO2-3GPS-Atri [Conj. 2] | highly effective | profound effects | dose dependent effects | – | strong nucleus condensation and nuclear augmentation | further nucleus condensation and augmentation | significant loss of cell population
SiO2-3GPS-Btri [Conj. 4] | highly effective | profound effects | dose dependent effects | more effective | disintegration of cancer cell bodies | strong nuclear condensation and augmentation | strong nuclear condensation and augmentation
SiO2-3GPS-Imi [Conj. 5] | highly effective | profound effects | dose dependent effects | – | high levels of nucleus condensation and nuclear augmentation | strong nuclear condensation and augmentation and the beginning of cell membrane disruption and cell death | significant loss of cell population
SiO2-3GPS-Tri [Conj. 1] | highly effective | profound effects | dose dependent effects | – | strong nucleus condensation and nuclear augmentation | further nucleus condensation and augmentation | significant loss of cell population
